Test results: patent EP3436024B1, “3-BETA-METHOXY-PREG FOR USE IN THE TREATMENT OF TREATMENT RESISTANT DEPRESSION” (Mapreg, priority 2016, dated 2017)

Assays:
[1] = tested on: Wistar Kyoto (WKY) rats; assay: Anxious-like behavior: activity in the central square of the open-field arena, WKY rats; format: in vivo, rat; details: acute, MAP4343 10 mg/kg s.c., fluoxetine 10 mg/kg i.p., ketamine 30 mg/kg i.p.
Description: (§1) After a 6-day period of acclimatization, all experimental groups received daily successive subcutaneous (250 µl per rat) and intraperitoneal (1 ml/kg) injections. WI rats received injection of vehicle (sesame oil + saline) while WKY rats were randomly assigned to […], as follow: KWY rats receiving only vehicle (sesame oil + saline) and WKY rats treated with MAP4343 (10 mg/kg, s.c.; rats received in parallel i.p. injections of saline), fluoxetine (10 mg/kg i.p., rats received in parallel s.c. injections of sesame oil) or ketamine (30 mg/kg, i.p.; rats received in parallel s.c. injections of sesame oil) (see Figure 3).
(§2) After, a 6-day period of acclimatization, the acute phase of treatment started for 4 days during behavioral tests were performed (Figure 3). All animals were injected 1h30 before the starting of behavioral test.
(§3) The animals were individually placed in the open field arena (OFA) (70 x 100 x 70 cm), with a central square (35 x 50 cm), located in a 50 lux illuminated room and videotaped during 3 min using a computerized system (VideoTrack V2.5, ViewPoint, Lyon, France).
(§4) OFA allows firstly the evaluation of total locomotor activity (LMA) thereby measuring the total distance travelled in the arena (in cm). Secondly, measurements of the activity in the center of the arena like (i) the number of entries in the center of arena and (ii) the total time spent in the center of arena (in sec) provide cues of anxiety-like behavior (Prut and Belzung, 2003). All these behavioral parameters were instantaneously measured automatically with the VideoTrack V2.5 software from the videos.

[2] = target: Histaminergic H1 (Homo sapiens, UniProt P35367); assay: CNS receptor binding assay, H1; details: MAP4343 10 µM; [^3H] pyrilamine; Human recombinant (HEK-293 cells); read-out: % Inhibition of control specific binding
Chain of Histaminergic H1 (P35367 whole entry): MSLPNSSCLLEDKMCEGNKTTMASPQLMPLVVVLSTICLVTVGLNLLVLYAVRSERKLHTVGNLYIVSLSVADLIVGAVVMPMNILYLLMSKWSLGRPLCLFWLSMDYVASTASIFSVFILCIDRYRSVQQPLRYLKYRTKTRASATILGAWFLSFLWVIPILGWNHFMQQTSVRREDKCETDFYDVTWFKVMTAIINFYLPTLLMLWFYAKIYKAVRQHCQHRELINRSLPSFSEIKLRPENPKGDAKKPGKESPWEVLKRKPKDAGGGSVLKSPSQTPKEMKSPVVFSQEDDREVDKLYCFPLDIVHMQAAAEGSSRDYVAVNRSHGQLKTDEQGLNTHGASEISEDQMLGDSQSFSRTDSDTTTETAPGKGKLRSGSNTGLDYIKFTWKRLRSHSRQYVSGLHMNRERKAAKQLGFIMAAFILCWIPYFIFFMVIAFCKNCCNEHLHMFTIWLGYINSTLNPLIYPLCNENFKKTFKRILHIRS
Description: (§5) MAP4343 has been screened for in vitro affinity to 80 different CNS neurotransmitters receptors using various validated binding assays.
(§6) Table 4. In vitro affinity of MAP4343 (10 µM) for CNS neurotransmitter receptors associated with side effects and/or abuse liability. Data are the average of two individual assays for each receptor and are expressed as % inhibition of the control specific binding of the reference compound. Results showing an inhibition higher than 50% are considered to represent significant effects of the test compound.

[3] = target: Serotoninergic 5-HT1A (Homo sapiens, UniProt P08908); assay: CNS receptor binding assay, 5-HT1A; details: MAP4343 10 µM; [^3H] 8-OH-DPAT; Human recombinant (HEK-293 cells); read-out: % Inhibition of control specific binding
Chain of Serotoninergic 5-HT1A (P08908 whole entry): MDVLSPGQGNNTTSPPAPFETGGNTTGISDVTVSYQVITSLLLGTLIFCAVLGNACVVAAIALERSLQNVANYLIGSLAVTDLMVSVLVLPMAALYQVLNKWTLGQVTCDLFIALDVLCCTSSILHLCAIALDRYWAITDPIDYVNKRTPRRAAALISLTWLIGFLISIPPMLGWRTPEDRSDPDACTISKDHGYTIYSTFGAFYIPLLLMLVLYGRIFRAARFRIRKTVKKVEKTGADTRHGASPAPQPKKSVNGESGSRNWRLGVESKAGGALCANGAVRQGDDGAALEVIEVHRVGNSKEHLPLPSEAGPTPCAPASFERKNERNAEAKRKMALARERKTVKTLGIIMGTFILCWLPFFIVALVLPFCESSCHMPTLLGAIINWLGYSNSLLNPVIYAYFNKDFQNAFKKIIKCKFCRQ
Description: as §5, §6

[4] = target: T1, human progesterone receptor(PR) (Homo sapiens, UniProt P06401); assay: Test of progesterone receptor antagonist activity (MMTV-luciferase transactivation in transfected HEK293T cells, with progesterone 1 nM); format: cell-based; details: 24 hours, progesterone 1 nM plus increasing amounts, Figure 2
T1 construct: expressed in transfected cells; host or cells: HEK293T
T1 sequence (P06401 1-933): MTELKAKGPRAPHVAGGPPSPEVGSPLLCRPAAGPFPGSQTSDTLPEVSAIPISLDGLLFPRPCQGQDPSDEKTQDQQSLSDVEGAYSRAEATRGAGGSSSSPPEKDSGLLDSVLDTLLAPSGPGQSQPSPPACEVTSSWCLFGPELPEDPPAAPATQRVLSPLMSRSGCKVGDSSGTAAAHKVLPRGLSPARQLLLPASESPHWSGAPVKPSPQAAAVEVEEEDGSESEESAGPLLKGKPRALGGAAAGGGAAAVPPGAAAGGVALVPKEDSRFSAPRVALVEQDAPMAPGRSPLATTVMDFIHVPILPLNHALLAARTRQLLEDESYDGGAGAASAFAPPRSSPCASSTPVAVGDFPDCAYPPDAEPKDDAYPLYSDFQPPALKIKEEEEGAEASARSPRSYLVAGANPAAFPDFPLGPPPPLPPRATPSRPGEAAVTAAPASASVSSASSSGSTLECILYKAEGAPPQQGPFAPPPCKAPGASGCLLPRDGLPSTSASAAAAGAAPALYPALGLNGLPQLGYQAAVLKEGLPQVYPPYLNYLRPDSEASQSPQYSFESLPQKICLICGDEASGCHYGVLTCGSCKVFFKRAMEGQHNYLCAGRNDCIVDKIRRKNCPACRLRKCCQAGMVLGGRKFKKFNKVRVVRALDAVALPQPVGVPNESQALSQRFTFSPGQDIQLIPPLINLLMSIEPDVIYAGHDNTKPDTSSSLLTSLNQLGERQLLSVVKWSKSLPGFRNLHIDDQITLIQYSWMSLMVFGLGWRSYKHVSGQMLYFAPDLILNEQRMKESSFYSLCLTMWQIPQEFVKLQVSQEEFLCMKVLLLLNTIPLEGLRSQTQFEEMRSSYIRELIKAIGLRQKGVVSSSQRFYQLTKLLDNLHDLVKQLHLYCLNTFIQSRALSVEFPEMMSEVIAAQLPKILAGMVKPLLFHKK
Description: The main experimental setting used is the following: HEK293T cells were transiently transfected, using calcium phosphate precipitation technology, with expression vectors pSG5hPR (which permits expression of human progesterone receptor(PR)), pFC31-luc (contains the luciferase gene under the control of the MMTV promoter, which is in turn activated by binding of a progestin to progesterone receptor) and pcbetagal (which permits expression of betagalactosidase), and cultured during 24 hours with increasing amounts of various compositions: • 1. […] Test of progesterone receptor […] activity: transfected cells were cultured with progesterone (1 nM) and increasing amounts of RU486 (a well-known progesterone receptor antagonist) or 3-methoxy-pregnenolone. With this setting, a compound with progesterone receptor antagonist activity competes with progesterone for the occupation of progesterone receptor and results in a progressive loss of transactivation activity when the amount of this compound is increased compared to progesterone.

[5] = tested on: Wistar Kyoto (WKY) rats; assay: Locomotor activity in the open-field arena, WKY rats; format: in vivo, rat; details: acute, MAP4343 10 mg/kg s.c., fluoxetine 10 mg/kg i.p., ketamine 30 mg/kg i.p., 3 min, Fig. 5A
Description: as §1, §2, §3, §4

## CO[C@H]1CC[C@@]2(C)C(=CC[C@H]3[C@@H]4CC[C@H](C(C)=O)[C@@]4(C)CC[C@@H]32)C1 (stereo in doubt) [MAP4343, 3β-methoxy-pregna-5-ene-20-one]
[1]; Fig. 5B
  number of entries in the central square of OFA, change as compared to WKY receiving only vehicle: +289%
[1]; Fig. 5C
  time spent in the center of open-field, change as compared to WKY receiving vehicle: did not modify
[2]
  inhibition at 10 µM: 9%
[3]
  inhibition at 10 µM: 2%
[4]
  progesterone receptor antagonist activity: weak progesterone receptor antagonist
[5]
  locomotor activity (total distance travelled in the open-field arena), change as compared to WKY receiving vehicle: did not modify significantly
